{
  "source": "paper PMC7019173",
  "about": "“Stapled peptide targeting the CDK4/Cyclin D interface combined with Abemaciclib inhibits KRAS mutant lung cancer growth” (Theranostics, 2020)",
  "key": {"A549 cells [1]": {"tested_on": "A549 cells", "experiment": "cells", "assay_type": "cell-based, human", "settings": "Homo sapiens, A549; 48 hours, crystal violet, at least two independent experiments (n=4/experiment) ± SD, Grafit; read-out: IC50 A549 cell proliferation", "description": "Non-small cell lung cancer A549, H358 and PC9 cell lines used in this study. Cell culture media, serum and antibiotics were purchased from Life Technologies. All cell lines were cultured in RPMI + Glutamax supplemented with 10% FCS, 100 units/mL penicillin (G sodium salt) and 100 µg/mL streptomycin at 37 °C in an atmosphere containing 5% CO2. […] Stock solutions of drugs were prepared in DMSO and freshly diluted in PBS to the desired concentration prior to use, then added onto unsynchronized cells cultured to subconfluency (60-70%), which were then further incubated for 24, 48 or 72 h. Cell proliferation was determined by crystal violet assay following treatment with drugs. Cells were washed with PBS, fixed with 3.7% formaldehyde for 10 min and then incubated with 0.1% crystal violet dye for 30 min. After rinsing, crystals were dissolved in 10% acetic acid and viability was determined by measuring absorbance at 595 nm."}, "A549 cells [2]": {"tested_on": "A549 cells", "experiment": "Flow cytometry cell cycle analysis", "assay_type": "cell-based, human", "settings": "24 h, Abemaciclib 0.5 and 5 µM, Ctrl stapled peptide 10 µM, P2short 1 or 10 µM", "description": "Cells were trypsinized and fixed in 70% ice cold ethanol, washed in PBS and resuspended in PBS-1% BSA-50 mM citrate with 25 µg/mL RNase A for 15 min at 37 °C, supplemented with 25 µg/mL of propidium iodide for 30 min at room temperature. For each condition 20000 events were analysed by Gallios (Beckman Coulter) and data analysis was performed using FlowJo Software."}, "[3]": {"tested_on": "H358 orthotopic lung tumours", "experiment": "Antitumour efficacy in mice with orthotopic lung tumour", "assay_type": "in vivo", "description": "Luciferase-modified human H358 NSCLC cells (H358-Luc cells) were suspended in medium with 10 mM EDTA and 5 mg/mL Matrigel (BD Biosciences) at 5.10^6 cells/50 μL. Six-week-old female NMRI nude mice (Janvier, Le Genest, Saint Isle, France) were anesthetized (isoflurane/air 4% for induction and 1.5% thereafter), and cells were inoculated in the lungs via the airways as previously described, [48]. Non-invasive in vivo bioluminescence imaging (IVIS Kinetic, Perkin-Elmer) was used 10 min after the intraperitoneal injection of 10 mg/mL D-Luciferin (Promega, Charbonnières, France) to monitor the quality of the implantation and to follow orthotopic growth, [48]. […] Five weeks after the inoculation of H358-Luc cells, when bioluminescent orthotopic tumours were detected, nude mice were randomly divided into 6 groups. […] To determine proliferative index, total and Ki67 positive tumour epithelial cells were scored on two to eight fields per mouse in three or four mice per group, and reported as percentage of Ki67 positive cells. […] Total and p-RB positive tumour epithelial cells were scored on two to twenty-nine fields per mouse in three or four mice per group, and reported as percentage of p-RB positive cells in each field and each treatment group."}, "circular dichroism": {"experiment": "circular dichroism", "settings": "50 mM phosphate buffer; pH 7; 20 °C; 100 uM"}, "[4]": {"target": "C4D peptide derived from the alpha 5 helix of cyclin D1 (Homo sapiens, UniProt P24385)", "sequence (P24385 whole entry)": "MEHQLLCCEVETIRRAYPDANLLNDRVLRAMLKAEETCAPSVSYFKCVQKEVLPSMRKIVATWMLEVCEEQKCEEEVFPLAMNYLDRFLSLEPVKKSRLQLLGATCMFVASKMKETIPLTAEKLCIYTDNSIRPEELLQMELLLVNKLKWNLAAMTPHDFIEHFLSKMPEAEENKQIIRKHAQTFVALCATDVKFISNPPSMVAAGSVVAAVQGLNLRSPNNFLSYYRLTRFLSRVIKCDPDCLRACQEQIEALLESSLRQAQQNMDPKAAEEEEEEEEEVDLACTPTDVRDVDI", "experiment": "Fluorescence titration of TP2-Rho-labelled C4D peptide with CDK4 C helix-derived peptides", "assay_type": "binding", "settings": "200 nM TP2-Rho labelled C4D peptide, PBS, 30 °C, average of n = 3 to 5 ± SD", "description": "(§1) TP2-Rho-labelled peptides: peptides were labelled on a unique cysteine residue with a five-fold molar excess of TP2-Rho-maleimide overnight, and then purified from free dye on NAP-5 columns (GE Healthcare), as described previously.\n(§2) Fluorescence titration assays were performed in 96-well plates in a thermostated chamber (Clariostar spectrofluorimeter, BMG) at 30 °C in 200 μL phosphate buffer saline using 200 nM fluorescently-labelled peptides or proteins. The fluorescence emission intensity of TP2-Rho-labelled peptides was recorded at 614 nm following excitation at 510 nm. The fluorescence emission intensity of mant-ATP was measured at […]. Data analysis was performed using the GraFit Software (Erathicus Ltd) and curve fitting was performed using a quadratic equation, as described previously. Experiments were performed in triplicate, and Kd values represent the average calculated for n = 3 to 5 experiments, together with standard deviation."}, "[5]": {"experiment": "Circular dichroism, determination of alpha helical content", "assay_type": "physicochemical", "description": "CD experiments were carried out using a Jasco J815 spectropolarimeter. Spectra were recorded with 100 μM of peptides dissolved in phosphate buffer 50 mM, pH 7, using a 1 mm pathlength CD cuvette at 20 °C, over a wavelength range of 190-260 nm. Continuous scanning mode was used, with a response of 1.0 s with 0.1 nm steps and a bandwidth of 2 nm. The signal to noise ratio was improved by acquiring each spectrum over an average of two scans. Baseline was corrected by subtracting the background from the sample spectrum.\nAlpha helical content was determined using the following equation: % Helix = ([θ])obs * 100)/(-39500 * (1-2.57/n), where ([θ])obs is the mean residue ellipticity at 222 nm and n the number of peptide bonds."}, "GST-cyclin D1": {"target": "T1, GST-cyclin D1 (Homo sapiens, UniProt P24385)", "T1 construct": "made in house; host or cells: E. coli", "T1 sequence (P24385 whole entry)": "as above", "experiment": "Fluorescence titration of TP2-Rho-labelled peptides with GST-cyclin D1", "assay_type": "binding", "settings": "200 nM TP2-Rho labelled peptide titrated with GST-cyclin D1, PBS, 30 °C, average of n = 3 to 5 ± SD", "description": "as §1\nRecombinant GST-CDK4 and GST-cyclin D1 were expressed in E. coli by IPTG induction and purified by FPLC chromatography as described previously.\nas §2"}, "[6]": {"experiment": "Solubility of stapled peptides", "assay_type": "physicochemical"}},
  "note": "Where a SMILES comes first, the peptide text is derived from it. Bridges are numbered along the chain shown (N, C = ends). [ ]: non-standard residue; d: D form. S5 = C=CCCC[C@](C)(N)C(=O)O",
  "data": [
    {"smiles": "CCN1CCN(Cc2ccc(Nc3ncc(F)c(-c4cc(F)c5nc(C)n(C(C)C)c5c4)n3)nc2)CC1", "note": "[Abemaciclib]", "values": [
      {"measurement": "IC50", "setting": "A549 cells [1]", "result": "2720 ± 2210", "unit": "nM"},
      {"measurement": "effect on the cell cycle (proportion of cells in G1)", "setting": "A549 cells [2]", "result": "significantly increased the proportion of cells in G1"},
      {"measurement": "effect on H358 orthotopic tumour growth, single agent", "setting": "[3]; bioluminescence, 3 weeks, Abemaciclib 10 mg/kg daily oral, P2shortA 0.45 mg/kg intrapulmonary 2 times a week, n=10", "result": "slightly reduced tumour growth"},
      {"measurement": "Ki67 or pRb levels in tumours, single agent", "setting": "[3]; intrapulmonary P2shortA or Abemaciclib alone, immunohistochemistry", "result": "did not reduce Ki67 or pRb levels"}
    ]},
    {"smiles": "CC[C@H](C)[C@H](NC(=O)[C@@H]1CCCN1C(=O)[C@@H](N)CS)C(=O)N[C@@H](CO)C(=O)N[C@H](C(=O)N[C@H](C(=O)N[C@@H](CCCNC(=N)N)C(=O)N[C@@H](CCC(=O)O)C(=O)N[C@H](C(=O)N[C@@H](C)C(=O)N[C@@H](CC(C)C)C(=O)N[C@@H](CC(C)C)C(=O)N[C@@H](CCCNC(=N)N)C(=O)N[C@@H](CCCNC(=N)N)C(=O)N[C@@H](CC(C)C)C(=O)N[C@@H](CCC(=O)O)C(=O)N[C@@H](C)C(=O)N[C@@H](Cc1ccccc1)C(=O)N[C@@H](CCC(=O)O)C(N)=O)C(C)C)C(C)C)[C@@H](C)O", "note": "[CDK4 C peptide] (H-CPISTVREVALLRRLEAFE-NH2)", "values": [
      {"measurement": "helicity", "setting": "circular dichroism", "result": 7, "unit": "%"},
      {"measurement": "Kd", "setting": "[4]", "result": "83 ± 45", "unit": "nM"},
      {"measurement": "% helix (alpha helical content)", "setting": "[5]; CD, 100 μM peptide in phosphate buffer 50 mM, pH 7, 20 °C, from mean residue ellipticity at 222 nm", "result": 7, "unit": "%"},
      {"measurement": "helicity upon addition of 25% TFE", "setting": "[5]; CD, phosphate buffer with 25% TFE", "result": 46, "unit": "%"},
      {"measurement": "conformation in solution (CD)", "setting": "[5]; phosphate buffer", "result": "disordered"},
      {"measurement": "Kd", "setting": "GST-cyclin D1", "result": "43 ± 24", "unit": "nM"}
    ]},
    {"smiles": "CC[C@H](C)[C@H](NC(=O)[C@@H]1CCCN1C(=O)[C@H](CC(C)C)NC(=O)CNC(C)=O)C(=O)N[C@@H](CO)C(=O)N[C@H](C(=O)N[C@H](C(=O)N[C@@H](CCCNC(=N)N)C(=O)N[C@@H](CCC(=O)O)C(=O)N[C@H](C(=O)N[C@@H](C)C(=O)N[C@@H](CC(C)C)C(=O)N[C@@]1(C)CCCC=CCCC[C@@](C)(C(=O)N[C@@H](C)C(=O)N[C@@H](Cc2ccccc2)C(=O)N[C@@H](CCC(=O)O)C(N)=O)NC(=O)[C@H](CC(C)C)NC(=O)[C@H](CCCNC(=N)N)NC(=O)[C@H](CCCNC(=N)N)NC1=O)C(C)C)C(C)C)[C@@H](C)O", "note": "[P3] (Ac-GLPISTVREVAL[S5]RRL[S5]AFE-NH2; staple 13-17)", "values": [
      {"measurement": "solubility", "setting": "[6]", "result": "poorly soluble"}
    ]}
  ]
}
